Test results from patent US20250034216A1, “STEREOSELECTIVE COVALENT LIGANDS FOR ONCOGENIC AND IMMUNOLOGICAL PROTEINS” (The Scripps Research Institute, priority 2021, published 2025).

Tests used:
DDX49_258 = molecular target: T1, DDX49_258 (Homo sapiens, UniProt Q9Y6V7); assay: IA-DTB cysteine engagement; type: binding; conditions: 22Rv1 cells, 5 μM probe, 1 h (FIG. 5B), relative to DMSO
T1 construct: endogenous in cells; host or cells: 22Rv1
Outline: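 Probe-exposed cells were lysed, IA-DTB-labeled, trypsinized and streptavidin-enriched. Multiplexed TMT quantitation gave engagement ratios versus DMSO, with non-tryptic peptides excluded and intensities normalized to median summed signal.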

PSME1 22 = molecular target: T2, PSME1 22 (Homo sapiens, UniProt Q06323); assay: IA-DTB cysteine engagement, GluC + trypsin digest; type: binding; conditions: 22Rv1 cells
T2 construct: stereoselectively engaged C22 of endogenous PSME1 in 22Rv1 cells; endogenous in cells; host or cells: 22Rv1
Experimental: Sample preparation: Cells (adherent: 15 cm dishes, suspension: 2 million cells/mL) were treated with electrophilic probes in situ for indicated times and concentrations, washed with ice-cold PBS, and flash frozen in liquid nitrogen. Cell pellets were lysed by sonication (8 pulses, 40% power) in 500 μL ice-cold PBS supplemented with cOmplete protease inhibitors (1 tablet/10 mL of PBS). Whole cell lysates protein content was measured using a standard DC protein assay (Bio-Rad) and 500 μL (2 mg/mL protein content) were treated with 5 μL of 10 mM 1A-DTB (in DMSO) for 1 h at ambient temperature with occasional vortexing. Samples were methanol-chloroform precipitated with the addition of 500 μL ice-cold MeOH and 200 μL CHCl3, vortexed, and centrifuged (10 min, 10,000 g). Without disrupting the protein disk, both top and bottom layers were aspirated and the protein disk was washed with 1 mL ice-cold MeOH and centrifuged (10 min, 10,000 g). The pellets were allowed to air dry, and then re-suspended in 90 μL buffer (9 M urea, 10 mM DTT, 50 mM TEAB pH 8.5). Samples were reduced by heating at 65 C for 20 minutes and water bath sonicated as needed to resuspend the protein pellets, followed by alkylation via addition of 10 μL (500 mM) iodoacetamide and incubated at 37 C for 30 min with shaking. Samples were briefly centrifuged, and probe sonicated once more to ensure complete resuspension, and then diluted with 300 μL buffer (50 mM TEAB pH 8.5) to reach final concentration of 2 M urea. […] Digested samples were then diluted with 300 μL wash buffer (50 mM TEAB pH 8.5, 150 mM NaCl, 0.2% NP-40) containing streptavidin-agarose beads (50 μL of 50% slurry in wash buffer) and were rotated at room temperature for 2 hours. Enriched samples were pelleted by centrifugation (2000 g, 2 min) and transferred to BioSpin columns and washed (3×1 mL wash buffer, 3×1 mL PBS, 3×1 mL water). Enriched peptides were eluted by 300 μL 50% acetonitrile with 0.1% formic acid and eluate was evaporated to dryness via speedvac. IA-DTB labeled and enriched peptides were resuspended in 100 μL EPPS buffer (200 mM, pH 8.0) with 30% acetonitrile, vortexed, and water bath sonicated. Samples were TMT labeled with 3 μL of corresponding TMT tag (5 mg tag resuspended in 256 μL acetonitrile), vortexed, and incubated at room temperature for 1 hour. […]
Data processing: Cysteine engagement ratios (probe vs DMSO) were calculated for each peptide-spectra match by dividing each TMT reporter ion intensity by the average intensity for the channels corresponding to DMSO treatment. […]
Samples were analyzed by liquid chromatography tandem mass-spectrometry using an Orbitrap Fusion mass spectrometer (Thermo Scientific) coupled to an UltiMate 3000 Series Rapid Separation LC system and autosampler (Thermo Scientific Dionex). […]

T2 sequence (Q06323 whole entry): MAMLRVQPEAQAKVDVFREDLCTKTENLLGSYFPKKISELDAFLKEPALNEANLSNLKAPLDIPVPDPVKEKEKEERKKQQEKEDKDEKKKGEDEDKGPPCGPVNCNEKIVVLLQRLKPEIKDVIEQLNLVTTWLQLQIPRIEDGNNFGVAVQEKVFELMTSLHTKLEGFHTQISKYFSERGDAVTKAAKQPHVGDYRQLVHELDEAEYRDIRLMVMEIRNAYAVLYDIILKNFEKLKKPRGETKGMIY
T1 sequence (Q9Y6V7 whole entry): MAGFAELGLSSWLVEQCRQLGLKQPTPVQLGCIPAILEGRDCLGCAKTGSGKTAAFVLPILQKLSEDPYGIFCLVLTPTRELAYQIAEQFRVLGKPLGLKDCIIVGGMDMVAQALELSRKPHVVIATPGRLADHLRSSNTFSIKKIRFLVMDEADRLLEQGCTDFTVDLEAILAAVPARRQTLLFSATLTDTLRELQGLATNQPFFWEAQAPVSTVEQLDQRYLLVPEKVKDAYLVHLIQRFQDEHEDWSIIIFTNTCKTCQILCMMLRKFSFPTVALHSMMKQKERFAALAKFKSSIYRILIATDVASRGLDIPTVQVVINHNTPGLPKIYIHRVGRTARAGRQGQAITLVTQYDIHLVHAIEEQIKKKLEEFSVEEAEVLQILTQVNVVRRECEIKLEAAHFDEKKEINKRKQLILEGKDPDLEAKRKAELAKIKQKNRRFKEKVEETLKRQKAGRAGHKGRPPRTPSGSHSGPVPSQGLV

| SMILES | % engagement DDX49_258 (DDX49_258) [%] | percent engagement relative to DMSO, PSME1 22 (PSME1 22; 5 uM) [%] | percent engagement relative to DMSO, PSME1 22 (PSME1 22; 20 uM) [%] |
| --- | --- | --- | --- |
| CC#CC(=O)N1C[C@H](c2ccc(Br)cc2)[C@@H]1C(=O)Nc1cccc2cccnc12 [MY-45B, (2R,3S)-3-(4-bromophenyl)-1-(but-2-ynoyl)-N-(quinolin-8-yl)azetidine-2-carboxamide] | 82.25 | – | – |
| C=CC(=O)N1[C@H](c2ccc3c(c2)OCO3)c2[nH]c3ccccc3c2C[C@H]1C(=O)N1CCOCC1 [WX-02-23, 1-((1R,3S)-1-(benzo[d][1,3]dioxol-S-yl)-3-(morpholine-4-carbonyl)-1,3,4,9-tetrahydro-2H-pyrido [3,4-b]indol-2-yl)prop-2-en-1-one] | – | −20.9 | −29.44 |
| C=CC(=O)N1C[C@H](c2ccc(Br)cc2)[C@@H]1C(=O)Nc1cccc2cccnc12 [MY-1B, (2R,3S)-1-acryloyl-3-(4-bromophenyl)-N-(quinolin-8-yl)azetidine-2-carboxamide] | 5.50 | – | – |
| C=CC(=O)N1[C@@H](c2ccc3c(c2)OCO3)c2[nH]c3ccccc3c2C[C@@H]1C(=O)N1CCOCC1 [WX-02-43, 1-((1S,3R)-1-(benzo[d][1,3]dioxol-5-yl)-3-(morpholine-4-carbonyl)-1,3,4,9-tetrahydro-2H-pyrido [3,4-b]indol-2-yl)prop-2-en-1-one] | – | −24.33 | −26.32 |
